Assay results: ChEMBL document CHEMBL5528074 (J Med Chem, 2024)
Activity calls are given as the source filed them. No cut-off for these calls is given here.

Key:
[1] = Half life in C57BL/6 mouse at 1 mg/kg, iv measured upto 24 hrs by LC-MS/MS analysis; assay type: ADME, organism-based; details: in vivo
[2] = Cmax in C57BL/6 mouse at 1 mg/kg, iv measured upto 24 hrs by LC-MS/MS analysis; assay type: ADME, organism-based; details: in vivo
[3] = AUC infinity in C57BL/6 mouse at 1 mg/kg, iv measured upto 24 hrs by LC-MS/MS analysis; assay type: ADME, organism-based; details: in vivo
[4] = Apparent volume of distribution in C57BL/6 mouse at 1 mg/kg, iv measured upto 24 hrs by LC-MS/MS analysis; assay type: ADME, organism-based; details: in vivo, read-out: Vz
[5] = Clearance in C57BL/6 mouse at 1 mg/kg, iv measured upto 24 hrs by LC-MS/MS analysis; assay type: ADME, organism-based; details: in vivo
[6] = Half life in C57BL/6 mouse at 3 mg/kg, po measured upto 24 hrs by LC-MS/MS analysis; assay type: ADME, organism-based; details: in vivo
[7] = Cmax in C57BL/6 mouse at 3 mg/kg, po measured upto 24 hrs by LC-MS/MS analysis; assay type: ADME, organism-based; details: in vivo
[8] = AUC infinity in C57BL/6 mouse at 3 mg/kg, po measured upto 24 hrs by LC-MS/MS analysis; assay type: ADME, organism-based; details: in vivo
[9] = Oral bioavailability in C57BL/6 mouse at 3 mg/kg measured upto 24 hrs by LC-MS/MS analysis; assay type: ADME, organism-based; details: in vivo
[10] = Metabolic stability in human liver microsomes assessed as half life at 10 uM incubated for 60 mins in presence of NADPH/UDPGA by LC-MS/MS analysis; assay type: ADME, Microsome; details: 1 h
[11] = Metabolic stability in mouse liver microsomes assessed as half life at 10 uM incubated for 60 mins in presence of NADPH/UDPGA by LC-MS/MS analysis; assay type: ADME, Microsome; details: 1 h
[12] = Metabolic stability in dog liver microsomes assessed as half life at 10 uM incubated for 60 mins in presence of NADPH/UDPGA by LC-MS/MS analysis; assay type: ADME, Canis lupus familiaris, Microsome
[13] = Metabolic stability in monkey liver microsomes assessed as half life at 10 uM incubated for 60 mins in presence of NADPH/UDPGA by LC-MS/MS analysis; assay type: ADME, Macaca mulatta, Microsome; details: rhesus monkey, 1 h
[14] = molecular target: T1, G-protein coupled receptor 183 (Homo sapiens, UniProt P32249); assay: Antagonist activity at GPR183 (unknown origin) transfected in HEK293 cells assessed as reversal of 7alpha,25-Dihydroxycholesterol induced cAMP reduction incubated for 30 mins by Glosensor cAMP assay; assay type: functional, cell-based
T1 sequence (P32249 whole entry): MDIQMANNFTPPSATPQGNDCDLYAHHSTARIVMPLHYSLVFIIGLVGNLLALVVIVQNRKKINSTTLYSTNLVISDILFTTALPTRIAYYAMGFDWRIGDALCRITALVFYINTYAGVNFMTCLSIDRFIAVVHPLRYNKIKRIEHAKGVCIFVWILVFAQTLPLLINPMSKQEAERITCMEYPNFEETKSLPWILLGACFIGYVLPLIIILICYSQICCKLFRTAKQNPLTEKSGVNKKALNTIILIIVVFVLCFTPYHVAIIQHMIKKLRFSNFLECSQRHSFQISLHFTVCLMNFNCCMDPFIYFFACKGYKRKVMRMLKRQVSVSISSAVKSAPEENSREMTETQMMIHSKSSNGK

[15] = molecular target: T1, G-protein coupled receptor 183; assay: Antagonist activity at GPR183 (unknown origin) transfected in HEK293 cells cotransfected with CRE-luciferase plasmid assessed as restoration of luciferase activity preincubated for 30 mins followed by 7alpha,25-dihydroxycholesterol induction and measured after 4 hrs by dual luciferase assay; assay type: functional, cell-based
[16] = molecular target: T1, G-protein coupled receptor 183; assay: Antagonist potency at GPR183 (unknown origin) transfected in HEK293 cells by schild plot analysis; assay type: cell-based; details: read-out: pA2 (converted)
[17] = molecular target: T1, G-protein coupled receptor 183; assay: Antagonist activity at GPR183 (unknown origin) transfected in HEK293 cells co-expressing LgBiT-fused SmBiT-beta-arrestin assessed as reduction in beta-arrestin recruitment using nanoluciferase as substrate incubated for 30 mins by bioluminescence based NanoBiT assay; assay type: functional, cell-based
[18] = Metabolic stability in rat liver microsomes assessed as compound remaining at 1 uM incubated for 60 mins in presence of NADPH/UDPGA by LC-MS/MS analysis; assay type: ADME, Microsome; details: read-out: Stability
[19] = Metabolic stability in mouse liver microsomes assessed as compound remaining at 1 uM incubated for 60 mins in presence of NADPH/UDPGA by LC-MS/MS analysis; assay type: ADME, Microsome; details: 1 h
[20] = Metabolic stability in dog liver microsomes assessed as compound remaining at 1 uM incubated for 60 mins in presence of NADPH/UDPGA by LC-MS/MS analysis; assay type: ADME, Canis lupus familiaris, Microsome; details: read-out: Stability
[21] = Metabolic stability in monkey liver microsomes assessed as compound remaining at 1 uM incubated for 60 mins in presence of NADPH/UDPGA by LC-MS/MS analysis; assay type: ADME, Macaca mulatta, Microsome; details: rhesus monkey, 1 h
[22] = Metabolic stability in human liver microsomes assessed as compound remaining at 1 uM incubated for 60 mins in presence of NADPH/UDPGA by LC-MS/MS analysis; assay type: ADME, Microsome; details: 1 h
U-937 [23] = assay: Antimigratory activity against human U-937 cells assessed as inhibition of 7alpha,25-dihydroxycholesterol induced cell migration by CCK-8 method; assay type: functional, cell-based
U-937 [24] = assay: Antiinflammatory activity in human U-937 cells assessed as reversal of 7alpha,25-dihydroxycholesterol induced TNFA gene expression at 0.1 to 10 uM incubated for 24 hrs by qPCR analysis; assay type: functional, cell-based; details: dose 0.1-10 µM
U-937 [25] = assay: Antiinflammatory activity in human U-937 cells assessed as reversal of 7alpha,25-dihydroxycholesterol induced IL1B gene expression at 0.1 to 10 uM incubated for 24 hrs by qPCR analysis; assay type: functional, cell-based; details: dose 0.1-10 µM
U-937 [26] = assay: Cytotoxicity against human U-937 cells measured after 72 hrs by CCK8 method; assay type: functional, cell-based
Mus musculus [27] = assay: Antiinflammatory activity against C57BL/6 mouse assessed as mitigation of DSS induced body weight loss administered as po measured for 10 days; assay type: functional, organism-based; details: dose 3-10 mg/kg, time 10.0 day
Mus musculus [28] = assay: Antiinflammatory activity against DSS-induced colitis C57BL/6 mouse model assessed as reduction in disease activity index (DAI) score at 3 mg/kg, po measured for 8 days; assay type: functional, organism-based; details: time 8.0 day
Mus musculus [29] = assay: Antiinflammatory activity against DSS-induced colitis C57BL/6 mouse model assessed as amelioration of inflammatory response at 3 to 10 mg/kg, po by H and E staining based analysis; assay type: functional, organism-based; details: dose 3-10 mg/kg
Mus musculus [30] = assay: Antiinflammatory activity against DSS-induced colitis C57BL/6 mouse model assessed as amelioration of colonic damage at 3 to 10 mg/kg, po by H and E staining based analysis; assay type: functional, organism-based; details: dose 3-10 mg/kg
Mus musculus [31] = assay: Antiinflammatory activity against DSS-induced colitis C57BL/6 mouse model assessed as reduction in Tnf-alpha expression in colon at 3 to 10 mg/kg, po; assay type: functional, organism-based; details: dose 3-10 mg/kg
Mus musculus [32] = assay: Antiinflammatory activity against DSS-induced colitis C57BL/6 mouse model assessed as reduction in Il1-beta expression in colon at 3 to 10 mg/kg, po; assay type: functional, organism-based; details: dose 3-10 mg/kg
Mus musculus [33] = assay: Antiinflammatory activity against DSS-induced colitis C57BL/6 mouse model assessed as increase in CREB phosphorylation level at 3 to 10 mg/kg, po by immunohistochemical analysis; assay type: functional, organism-based; details: dose 3-10 mg/kg
[34] = Toxicity in C57BL/6 mouse assessed as effect on heart at 3 mg/kg, po by H and E staining based analysis; assay type: organism-based; details: in vivo
[35] = Toxicity in C57BL/6 mouse assessed as effect on liver at 3 mg/kg, po by H and E staining based analysis; assay type: organism-based; details: in vivo
[36] = Toxicity in C57BL/6 mouse assessed as effect on spleen at 3 mg/kg, po by H and E staining based analysis; assay type: organism-based; details: in vivo
[37] = Toxicity in C57BL/6 mouse assessed as effect on lung at 3 mg/kg, po by H and E staining based analysis; assay type: organism-based; details: in vivo
[38] = Toxicity in C57BL/6 mouse assessed as effect on kidney at 3 mg/kg, po by H and E staining based analysis; assay type: organism-based; details: in vivo
[39] = Toxicity in C57BL/6 mouse assessed as drug tolerance at 3 mg/kg, po by H and E staining based analysis; assay type: organism-based; details: in vivo
[40] = molecular target: T1, G-protein coupled receptor 183
Description: Antagonist activity at GPR183 (unknown origin) transfected in HEK293 cells incubated for 30 mins by Glosensor cAMP assay

Work on `Nc1nc2ccc(C(=O)N3CCN(C(=O)/C=C/c4ccc(Br)cc4)CC3)cc2s1` yielded a half-life [1] of 1.61 h, a Cmax [2] of 828 ng/mL and an AUC(0-inf) [3] of 1920 ng·h/mL. It also gave a Vd [4] of 1.21 L/kg, a clearance [5] of 8.72 mL/min/kg and a half-life [6] of 2.24 h. The Cmax [7] was 817 ng/mL, the AUC(0-inf) [8] was 4090 ng·h/mL and the bioavailability [9] was 71.1%. The t1/2 [10] was 2.52 h, the t1/2 [11] was 2.35 h and the half-life at 10 µM [12] was 6.42 h. For the same molecule, the t1/2 [13] was 1.36 h, the IC50 [14] was 820 pM and the IC50 [15] was 1830 pM. It also gave a Kb [16] of 617 pM, an IC50 [17] of 880 pM and a remaining at 1 h, 1 µM [18] of 95.9%. It also gave a Stability [19] of 96.2%, a remaining at 1 h, 1 µM [20] of 96.5% and a Stability [21] of 91.5%. The Stability [22] was 98.4%, the IC50 (U-937 [23]) was 730 pM and the Activity (U-937 [24]) was “Active”. The Activity (U-937 [25]) was “Active”, the Activity (U-937 [26]) was “inactive” and the Activity (Mus musculus [27]) was “Dose-Dependent Effect”. For the same molecule, the Activity (Mus musculus [28]) was “Active”, the Activity (Mus musculus [29]) was “Active” and the Activity (Mus musculus [30]) was “Active”. The Activity (Mus musculus [31]) was “Active”, the Activity (Mus musculus [32]) was “Active” and the Activity (Mus musculus [33]) was “Active”. The Activity [34] was “Non-Toxic”, the Activity [35] was “Non-Toxic” and the Activity [36] was “Non-Toxic”. For the same molecule, the Activity [37] was “Non-Toxic”, the Activity [38] was “Non-Toxic” and the Activity [39] was “Non-Toxic”. It also gave an IC50 [40] of 820 pM.
